We go through one compound from US7619059B2, “Bimolecular optical probes” (Life Technologies Corporation, priority 2003, dated 2009).

pEC50: −log10 of the molar value.

Assay [1] has as its target T1, GSK3β (Homo sapiens, UniProt P49841).
T1 construct: purchased PV3270/29135A
The assay is described as follows: Z′-Lyte TR-FRET kinase assay, GSK3β. It counts as biochemical. The settings on record: 400 nM substrate, 0.25 μg/ml GSK3β; read-out: ATP EC50 (ATP titration) GSK3β. For orientation: TR-FRET usually uses a lanthanide donor and a delayed reading to cut background.

Assay [2] has as its target T2, GSK3α (Homo sapiens, UniProt P49840).
T2 construct: purchased PV3322/30387A
Description: Z′-Lyte TR-FRET kinase assay, GSK3α. It is filed as biochemical. The settings on record: 400 nM substrate, 0.03 μg/ml GSK3α; read-out: ATP EC50 (ATP titration) GSK3α.
Description: To each well of a 384 well plate, 5 μl of 2X substrate/2X enzyme in 1X kinase reaction buffer was added. Then, 5 μl of 2X ATP in 1X kinase reaction buffer was added in order to initiate the kinase reaction. The plate was briefly mixed and the 10 μl kinase reaction was allowed to incubate for 60 minutes at room temperature. To each well, 5 μl of 3X chymotrypsin in development buffer B was added. The plate was briefly mixed and the 15 μl reaction was allowed to incubate for 60 minutes at room temperature. To each well, 5 μl of 4X Tb-labeled SA in stop buffer was added. The plate was briefly mixed and the 20 μl reactions read. […] The dichroic 2 mirror was used. A TR-FRET ratio=Em520/Em495 was calculated. An ATP titration was performed in order to determine the optimal amount of ATP to use per well for subsequent IC50 experiments. […] The assay was carried out using the general assay procedure listed above except with the following modification: a 2X ATP titration series was diluted 2 fold in 1X kinase buffer. […] The three fold titration of compounds was performed in a separate 384 well plate in 2X substrate (800 nM, therefore 1X=400 nM)/2X ATP (20 μM, therefore 1X=10 μM) in 1X kinase buffer/3% DMSO. Then 5 μl of the titration series of each compound was added to the appropriate wells in the 384 well assay plate. […]

T1 sequence (P49841 whole entry): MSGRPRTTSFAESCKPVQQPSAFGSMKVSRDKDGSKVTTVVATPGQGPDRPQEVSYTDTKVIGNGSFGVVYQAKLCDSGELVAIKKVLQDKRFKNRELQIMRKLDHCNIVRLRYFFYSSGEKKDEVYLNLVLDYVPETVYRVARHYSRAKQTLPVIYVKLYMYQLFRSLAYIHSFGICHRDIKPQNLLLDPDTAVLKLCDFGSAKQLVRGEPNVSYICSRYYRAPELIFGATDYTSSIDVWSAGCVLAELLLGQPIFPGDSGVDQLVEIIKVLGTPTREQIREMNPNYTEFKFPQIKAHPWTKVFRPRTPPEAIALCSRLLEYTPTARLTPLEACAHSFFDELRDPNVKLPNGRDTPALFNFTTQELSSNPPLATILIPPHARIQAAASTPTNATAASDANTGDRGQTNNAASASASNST
T2 sequence (P49840 whole entry): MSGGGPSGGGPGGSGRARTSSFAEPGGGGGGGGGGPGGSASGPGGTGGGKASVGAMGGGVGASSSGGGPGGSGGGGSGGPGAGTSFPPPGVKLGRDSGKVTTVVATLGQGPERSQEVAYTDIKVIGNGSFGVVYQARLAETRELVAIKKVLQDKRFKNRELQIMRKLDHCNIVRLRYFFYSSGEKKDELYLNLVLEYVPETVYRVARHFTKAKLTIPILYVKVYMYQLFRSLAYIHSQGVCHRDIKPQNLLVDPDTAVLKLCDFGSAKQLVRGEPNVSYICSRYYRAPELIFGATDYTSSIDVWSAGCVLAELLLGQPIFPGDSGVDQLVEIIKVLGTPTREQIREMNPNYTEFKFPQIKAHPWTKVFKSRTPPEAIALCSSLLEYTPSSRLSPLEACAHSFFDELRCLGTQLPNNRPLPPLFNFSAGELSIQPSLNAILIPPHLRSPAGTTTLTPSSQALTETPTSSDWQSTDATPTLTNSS

On to `Nc1ncnc2c1ncn2[C@@H]1O[C@H](COP(=O)(O)OP(=O)(O)OP(=O)(O)O)[C@@H](O)[C@H]1O` [ATP], for which the pEC50 in assay [1] and in assay [2] was around 5.00 in each case.
